Reference: PubChem BioAssay AID248 (DTP/NCI, 2004)
Values joined by “and” are separate entries in the source; they are usually repeats but may differ in a detail not shown here. Identical values can stand only once. Toxic doses and inconclusive results are not listed. Cut-off read from the data, not from the text of the source: active = T/C of 150% or more; inactive = T/C below 125%.

Test system: L1210 leukemia ip in BDF1 mice, survival T/C
Assay: NCI In Vivo Anticancer Drug Screen. Data for tumor model L1210 Leukemia (intraperitoneal) in B6D2F1 (BDF1) mice
Settings: endpoint: mean survival time, higher = longer survival
Summary of the method: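 Each compound was tested against a transplantable tumor grown in mice. The endpoint was survival, with treated animals benchmarked against vehicle controls as a simple ratio.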

[1] = dose: 50.0 mg/kg/injection, schedule: Q01DX009 (ip), vehicle: saline with Tween-80
[2] = dose: 100.0 mg/kg/injection, schedule: Q01DX009 (ip), vehicle: saline with Tween-80
[3] = dose: 100.0 mg/kg/injection, schedule: Q04DX003 (ip), vehicle: saline with Tween-80
[4] = dose: 200.0 mg/kg/injection, schedule: Q04DX003 (ip), vehicle: saline with Tween-80
[5] = dose: 100.0 mg/kg/injection, schedule: Q01DX001 (ip), vehicle: carboxymethylcellulose (CMC)
[6] = dose: 400.0 mg/kg/injection, schedule: Q01DX001 (ip), vehicle: carboxymethylcellulose (CMC)
[7] = dose: 200.0 mg/kg/injection, schedule: Q01DX001 (ip), vehicle: carboxymethylcellulose (CMC)
[8] = dose: 100.0 mg/kg/injection, schedule: Q01DX001 (ip), vehicle: saline
[9] = dose: 200.0 mg/kg/injection, schedule: Q01DX001 (ip), vehicle: saline
[10] = dose: 100.0 mg/kg/injection, schedule: Q01DX009 (ip), vehicle: Klucel (hydroxypropylcellulose) (HPC)
[11] = dose: 100.0 mg/kg/injection, schedule: Q04DX003 (ip), vehicle: Klucel (hydroxypropylcellulose) (HPC)
[12] = dose: 200.0 mg/kg/injection, schedule: Q01DX009 (ip), vehicle: Klucel (hydroxypropylcellulose) (HPC)
[13] = dose: 200.0 mg/kg/injection, schedule: Q04DX003 (ip), vehicle: Klucel (hydroxypropylcellulose) (HPC)
[14] = dose: 400.0 mg/kg/injection, schedule: Q01DX009 (ip), vehicle: Klucel (hydroxypropylcellulose) (HPC)
[15] = dose: 400.0 mg/kg/injection, schedule: Q04DX003 (ip), vehicle: Klucel (hydroxypropylcellulose) (HPC)
[16] = dose: 400.0 mg/kg/injection, schedule: Q01DX001 (ip), vehicle: saline
[17] = dose: 25.0 mg/kg/injection, schedule: Q04DX003 (ip), vehicle: saline with Tween-80
[18] = dose: 100.0 mg/kg/injection, schedule: Q04DX003 (ip), vehicle: saline
[19] = dose: 200.0 mg/kg/injection, schedule: Q04DX003 (ip), vehicle: saline
[20] = dose: 12.5 mg/kg/injection, schedule: Q01DX009 (ip), vehicle: saline
[21] = dose: 25.0 mg/kg/injection, schedule: Q01DX009 (ip), vehicle: saline
[22] = dose: 25.0 mg/kg/injection, schedule: Q04DX003 (ip), vehicle: saline
[23] = dose: 50.0 mg/kg/injection, schedule: Q01DX009 (ip), vehicle: saline
[24] = dose: 50.0 mg/kg/injection, schedule: Q04DX003 (ip), vehicle: saline
[25] = dose: 100.0 mg/kg/injection, schedule: Q04DX002 (ip), vehicle: Klucel (hydroxypropylcellulose) (HPC)
[26] = dose: 200.0 mg/kg/injection, schedule: Q04DX002 (ip), vehicle: Klucel (hydroxypropylcellulose) (HPC)
[27] = dose: 400.0 mg/kg/injection, schedule: Q04DX002 (ip), vehicle: Klucel (hydroxypropylcellulose) (HPC)

Measured: T/C

Cc1cc(Oc2ccc(Cl)cc2NC(=O)Nc2cccc(C(F)(F)F)c2)cc(S(=O)(=O)O)c1Cl
inactive: dose: 25.0 mg/kg/injection, schedule: Q01DX009 (ip), vehicle: saline sonified 101 % of control | dose: 50.0 mg/kg/injection, schedule: Q01DX009 (ip), vehicle: saline sonified 98 % of control | dose: 100.0 mg/kg/injection, schedule: Q01DX009 (ip), vehicle: saline sonified 90 % of control

O=C(Nc1ccccc1[N+](=O)[O-])C(=O)Nc1ccccc1[N+](=O)[O-]
inactive: [1] 91 % of control | [2] 86 % of control | [3] 95 % of control | dose: 200.0 mg/kg/injection, schedule: Q01DX009 (ip), vehicle: saline with Tween-80 94 % of control | [4] 93 % of control

CCOP(=O)(OCC)OCCOCCOP(=O)(OCC)OCC
inactive: dose: 8.8 mg/kg/injection, schedule: Q01DX Z (ip), vehicle: saline 98 % of control | dose: 13.3 mg/kg/injection, schedule: Q01DX Z (ip), vehicle: saline 110 % of control | dose: 20.0 mg/kg/injection, schedule: Q01DX Z (ip), vehicle: saline 96 % of control

CC1c2ccccc2OC(=O)C1C(=O)O (stereo not given)
inactive: dose: 88.8 mg/kg/injection, schedule: Q01DX001 (ip), vehicle: carboxymethylcellulose (CMC) 94 % of control | [5] 94 % of control | dose: 133.4 mg/kg/injection, schedule: Q01DX001 (ip), vehicle: carboxymethylcellulose (CMC) 94 % of control | dose: 300.0 mg/kg/injection, schedule: Q01DX001 (ip), vehicle: carboxymethylcellulose (CMC) 100 % of control | [6] 94 % of control

N#CCCNC(=O)Nc1cccc2ccccc12
inactive: [5] 96 % of control | [7] 100 % of control | [6] 96 % of control

CC1=Nc2ccccc2N=C(C)C1
inactive: [8] 107 % of control | [3] 93 % of control | [9] 102 % of control | [4] 96 % of control

CCCCNC(=O)Nc1ccc(OC)cc1
inactive: [10] 103 % of control | [11] 96 % of control | [12] 92 % of control | [13] 93 % of control | [14] 90 % of control | [15] 102 % of control

COc1cc(C)nc(OC)n1
inactive: [8] 96 % of control | [9] 96 % of control | [16] 96 % of control

CC12CCC(C/C1=C\C#N)C(C)(C)O2 (stereo not given)
inactive: [11] 98 % of control | [13] 98 % of control | [15] 101 % of control

CC(C)(C)C(=O)CC(=O)C(C)(C)C.CC(C)(C)C(=O)CC(=O)C(C)(C)C.CC(C)(C)C(=O)CC(=O)C(C)(C)C.CC(C)(C)C(=O)CC(=O)C(C)(C)C.[Ce]
inactive: [10] 100 % of control | [11] 103 % of control | [12] 96 % of control | [13] 94 % of control | [14] 107 % of control | [15] 106 % of control

COc1ccc(-c2c(O)c3cccc(-c4ccccc4)c3oc2=O)cc1
inactive: [17] 116 % of control | dose: 50.0 mg/kg/injection, schedule: Q04DX003 (ip), vehicle: saline with Tween-80 96 % of control | [3] 101 % of control | [18] 95 % of control | [19] 93 % of control

CCC1CN2CCc3cc(OC)c(OC)cc3C2CC1CC1c2cc(OC)c(OC)cc2CCN1C(=O)C(N)Cc1ccccc1 (stereo not given)
inactive: [8] 107 % of control | [9] 97 % of control | [16] 110 % of control

CCOC(=O)c1cnc(SC)nc1N(CC)c1ccccc1
inactive: dose: 100.0 mg/kg/injection, schedule: Q01DX009 (ip), vehicle: gum acacia 105 % of control | dose: 100.0 mg/kg/injection, schedule: Q04DX003 (ip), vehicle: gum acacia 102 % of control | dose: 200.0 mg/kg/injection, schedule: Q01DX009 (ip), vehicle: gum acacia 100 % of control | dose: 200.0 mg/kg/injection, schedule: Q04DX003 (ip), vehicle: gum acacia 102 % of control | dose: 400.0 mg/kg/injection, schedule: Q01DX009 (ip), vehicle: gum acacia 102 % of control | dose: 400.0 mg/kg/injection, schedule: Q04DX003 (ip), vehicle: gum acacia 102 % of control

C#CCSC(C)C
inactive: dose: 25.0 mg/kg/injection, schedule: Q04DX002 (ip), vehicle: saline 104 % of control | dose: 50.0 mg/kg/injection, schedule: Q04DX002 (ip), vehicle: saline 104 % of control | dose: 100.0 mg/kg/injection, schedule: Q04DX002 (ip), vehicle: saline 96 % of control | dose: 200.0 mg/kg/injection, schedule: Q04DX002 (ip), vehicle: saline 104 % of control and 107 % of control | dose: 400.0 mg/kg/injection, schedule: Q04DX002 (ip), vehicle: saline 93 % of control

NCCOP(=O)(O)OCC1OC(n2cnc3c(N)ncnc32)C(O)C1O (stereo not given)
inactive: dose: 100.0 mg/kg/injection, schedule: Q01DX005 (ip), vehicle: saline 92 % of control | dose: 200.0 mg/kg/injection, schedule: Q01DX005 (ip), vehicle: saline 92 % of control

O=C(CCl)Oc1ccccc1
inactive: [1] 94 % of control | [2] 87 % of control | [3] 101 % of control | [4] 96 % of control

CN(C)CCSC(=O)N1c2ccccc2C(C)(C)c2ccccc21
inactive: [20] 94 % of control | [21] 100 % of control | [22] 91 % of control | [23] 111 % of control | [24] 102 % of control | [18] 96 % of control | [19] 90 % of control

CC(CCc1ccccc1)NC(C)C(O)c1ccc(O)cc1 (stereo not given)
inactive: dose: 6.25 mg/kg/injection, schedule: Q01DX009 (ip), vehicle: saline 101 % of control | [20] 104 % of control | dose: 12.5 mg/kg/injection, schedule: Q04DX003 (ip), vehicle: saline 94 % of control | [21] 98 % of control | [22] 102 % of control | [23] 97 % of control | [24] 94 % of control | dose: 100.0 mg/kg/injection, schedule: Q01DX009 (ip), vehicle: saline 97 % of control | [18] 89 % of control

CN(C)Cc1ccccc1COC(=O)c1ccc([N+](=O)[O-])cc1Cl
inactive: [25] 102 % of control | [26] 109 % of control | [27] 94 % of control

COc1ccc(NC(=O)Oc2ccccn2)cc1
inactive: dose: 25.0 mg/kg/injection, schedule: Q01DX009 (ip), vehicle: carboxymethylcellulose (CMC) 92 % of control and 100 % of control | dose: 50.0 mg/kg/injection, schedule: Q01DX009 (ip), vehicle: carboxymethylcellulose (CMC) 93 % of control and 103 % of control | [5] 97 % of control | dose: 100.0 mg/kg/injection, schedule: Q04DX003 (ip), vehicle: carboxymethylcellulose (CMC) 93 % of control and 106 % of control | [7] 101 % of control | dose: 200.0 mg/kg/injection, schedule: Q04DX003 (ip), vehicle: carboxymethylcellulose (CMC) 97 % of control and 113 % of control | [6] 113 % of control | dose: 400.0 mg/kg/injection, schedule: Q04DX003 (ip), vehicle: carboxymethylcellulose (CMC) 97 % of control and 108 % of control

C=CCOCC(O)C[As](=O)(O)c1ccc(OC)cc1 (stereo not given)
inactive: [17] 87 % of control

C=CCOC(=O)C1(O)c2ccccc2NC(=S)N1CC=C (stereo not given)
inactive: [10] 104 % of control | [25] 97 % of control | [12] 93 % of control | [26] 97 % of control | [14] 93 % of control | [27] 100 % of control

c1ccc2c(c1)C(=NN=C1c3ccccc3-c3ccccc31)c1ccccc1-2
inactive: [5] 97 % of control | [10] 93 % of control | [7] 94 % of control | [12] 104 % of control | [6] 94 % of control | [14] 96 % of control

Cc1cccc(NC(=O)/C=N/O)c1C
inactive: [11] 98 % of control | [13] 98 % of control

C[N+]1(Cc2ccccc2)C2CCC1C(=O)N(Cc1ccccc1)C2=O (stereo not given)
inactive: dose: 75.0 mg/kg/injection, schedule: Q01DX001 (ip), vehicle: saline 103 % of control | dose: 150.0 mg/kg/injection, schedule: Q01DX001 (ip), vehicle: saline 116 % of control
